ChEMBL document CHEMBL5260850, “The exploration of aza-quinolines as hematopoietic prostaglandin D synthase (H-PGDS) inhibitors with low brain exposure” (Bioorg Med Chem, 2020)
Values after ≈ are worked out from the molar mass of the structure shown. Active and inactive are the calls of the source. The rule behind the calls is not given here.

Legend:
[1] = molecular target: Albumin (Homo sapiens, UniProt P02768); assay: Protein binding in human serum albumin by HPLC analysis; type: ADME, cell-free; details: read-out: PB (converted)
Albumin, sequence (P02768 whole entry): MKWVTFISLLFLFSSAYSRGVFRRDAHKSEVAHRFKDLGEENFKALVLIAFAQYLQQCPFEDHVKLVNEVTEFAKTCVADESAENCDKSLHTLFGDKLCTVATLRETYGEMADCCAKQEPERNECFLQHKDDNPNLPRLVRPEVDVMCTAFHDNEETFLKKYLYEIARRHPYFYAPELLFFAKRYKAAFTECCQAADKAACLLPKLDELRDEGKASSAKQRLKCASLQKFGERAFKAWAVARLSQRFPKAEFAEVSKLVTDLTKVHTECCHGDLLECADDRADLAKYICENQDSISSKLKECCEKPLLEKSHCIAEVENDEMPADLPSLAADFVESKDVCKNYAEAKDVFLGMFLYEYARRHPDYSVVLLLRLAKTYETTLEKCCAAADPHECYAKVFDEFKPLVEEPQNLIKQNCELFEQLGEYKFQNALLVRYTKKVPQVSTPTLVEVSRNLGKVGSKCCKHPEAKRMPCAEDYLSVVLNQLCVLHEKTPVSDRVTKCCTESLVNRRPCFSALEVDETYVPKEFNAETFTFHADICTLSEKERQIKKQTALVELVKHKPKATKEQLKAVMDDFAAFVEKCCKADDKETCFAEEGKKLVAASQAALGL

[2] = Toxicity in dog assessed as discoloration in small intestine and oesophagus at 75 mg/kg/day, po QD for 4 days by macroscopic analysis; type: organism-based, Canis lupus familiaris; details: in vivo, 96 h, time 4 day
[3] = Toxicity in Wistar Han rat assessed as cortical hypertrophy in adrenal gland at 100 mg/kg/day, po administered QD for 7 days by microscopic analysis; type: organism-based; details: in vivo, 168 h, time 7 day
[4] = molecular target: Voltage-gated inwardly rectifying potassium channel KCNH2 (Homo sapiens, UniProt Q12809); assay: Inhibition of hERG
[5] = Toxicity in dog assessed as clinical pathological changes by measuring increase in cardiac troponin 1 level at 75 mg/kg/day, po QD for 4 days; type: organism-based, Canis lupus familiaris; details: in vivo, 96 h, time 4 day
[6] = Toxicity in dog assessed as cytoplasmic alteration in zona fasciculata in adrenal gland at 75 mg/kg/day, po QD for 4 days by microscopic analysis; type: organism-based, Canis lupus familiaris; details: in vivo, 96 h, time 4 day
[7] = AUC in Wistar Han rat at 100 mg/kg/day, po QD for 7 days; type: ADME, organism-based; set-up: time 7 day, dose 100 mg/kg/day, route po; details: in vivo
[8] = Terminal half life in dog at 0.5 mg/kg, iv; type: ADME, organism-based, Canis lupus familiaris; details: in vivo, read-out: beta t1/2 (converted)
[9] = AUC (0 to last) in eccentric contraction-induced muscle injury C57BL/6N mouse model administered orally for 10 mins prior to unilateral eccentric contraction and QD for 16 days thereafter; type: ADME; set-up: time 16 day, route po; details: in vivo, po
[10] = Cmax in Wistar Han rat at 30 mg/kg/day, po QD for 7 days; type: ADME, organism-based; set-up: time 7 day, dose 30 mg/kg/day, route po; details: in vivo
[11] = Toxicity in dog assessed as body weight loss at 75 mg/kg/day, po QD for 4 days; type: organism-based, Canis lupus familiaris; details: in vivo, 96 h, time 4 day
[12] = molecular target: T1, Hematopoietic prostaglandin D synthase (Homo sapiens, UniProt O60760); assay: Binding affinity to human H-PGDS expressed in Escherichia coli BL21 DE3 cells assessed as equilibrium dissociation constant by measuring changes in intrinsic tryptophan fluorescence in presence of glutathione by fluorescence based analysis
T1 sequence (O60760 whole entry): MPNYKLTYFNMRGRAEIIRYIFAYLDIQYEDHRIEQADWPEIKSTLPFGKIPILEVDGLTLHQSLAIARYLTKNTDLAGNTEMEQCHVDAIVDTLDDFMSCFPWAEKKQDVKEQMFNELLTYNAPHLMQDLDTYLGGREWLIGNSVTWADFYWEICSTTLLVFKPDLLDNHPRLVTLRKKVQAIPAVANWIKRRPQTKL

[13] = Free Cmax in mdx mouse administered orally 10 mins prior to unilateral eccentric contraction and QD for 43 days thereafter; type: ADME; details: in vivo, po, 1032 h, time 43 day
[14] = molecular target: Histamine H1 receptor (Homo sapiens) (UniProt P35367); details: dose <= 10000.0 nM
Histamine H1 receptor (Homo sapiens), sequence (P35367 whole entry): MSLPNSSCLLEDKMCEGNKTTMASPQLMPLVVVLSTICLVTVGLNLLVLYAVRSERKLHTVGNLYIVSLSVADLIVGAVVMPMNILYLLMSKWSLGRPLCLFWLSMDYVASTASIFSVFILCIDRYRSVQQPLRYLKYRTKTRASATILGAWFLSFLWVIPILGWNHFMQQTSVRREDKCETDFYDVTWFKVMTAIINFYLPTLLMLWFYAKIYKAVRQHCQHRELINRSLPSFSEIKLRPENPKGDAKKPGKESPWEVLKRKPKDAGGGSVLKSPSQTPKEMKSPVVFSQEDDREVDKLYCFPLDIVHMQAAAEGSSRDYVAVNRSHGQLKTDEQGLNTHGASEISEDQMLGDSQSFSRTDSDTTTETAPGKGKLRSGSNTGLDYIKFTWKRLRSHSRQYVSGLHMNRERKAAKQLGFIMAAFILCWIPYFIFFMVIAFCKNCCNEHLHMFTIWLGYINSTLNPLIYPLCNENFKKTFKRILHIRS
Description: Inhibition of histamine H1 receptor (unknown origin) upto 10000 nM

[15] = molecular target: D(2) dopamine receptor (Homo sapiens) (UniProt P14416); details: dose <= 10000.0 nM
D(2) dopamine receptor (Homo sapiens), sequence (P14416 whole entry): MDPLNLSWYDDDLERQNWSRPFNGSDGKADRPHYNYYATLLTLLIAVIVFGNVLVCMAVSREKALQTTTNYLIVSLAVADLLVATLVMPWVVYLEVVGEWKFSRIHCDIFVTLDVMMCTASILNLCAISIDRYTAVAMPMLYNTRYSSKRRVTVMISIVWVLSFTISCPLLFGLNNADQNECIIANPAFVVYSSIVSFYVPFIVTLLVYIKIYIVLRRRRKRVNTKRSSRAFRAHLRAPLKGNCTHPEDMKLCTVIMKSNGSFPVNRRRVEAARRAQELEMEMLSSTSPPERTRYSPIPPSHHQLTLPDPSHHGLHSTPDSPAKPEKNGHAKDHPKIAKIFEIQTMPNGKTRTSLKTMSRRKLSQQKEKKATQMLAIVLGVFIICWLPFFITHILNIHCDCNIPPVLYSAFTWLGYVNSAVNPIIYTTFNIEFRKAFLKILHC
Description: Inhibition of dopamine D2 receptor (unknown origin) upto 10000 nM

[16] = Toxicity in Wistar Han rat assessed as morphological changes in kidney at 30 mg/kg/day, po administered QD for 7 days by microscopic analysis; type: organism-based; details: in vivo, 168 h, time 7 day
[17] = Selectivity ratio of EC50 for inhibition of H-PGDS in rat RBL cells assessed as reduction in A23187-induced PGD2 production to EC50 for anti-inflammatory activity against po dosed C57BL/6J mouse assessed as reduction in compound 48/80-induced PGD2 release into peritoneal lavage fluid
[18] = Terminal half life in rat at 0.4 mg/kg, iv; type: ADME, organism-based; details: in vivo, read-out: beta t1/2 (converted)
[19] = molecular target: 3',5'-cyclic-AMP phosphodiesterase 4B (Homo sapiens) (UniProt Q07343); details: dose <= 10000.0 nM
3',5'-cyclic-AMP phosphodiesterase 4B (Homo sapiens), sequence (Q07343 whole entry): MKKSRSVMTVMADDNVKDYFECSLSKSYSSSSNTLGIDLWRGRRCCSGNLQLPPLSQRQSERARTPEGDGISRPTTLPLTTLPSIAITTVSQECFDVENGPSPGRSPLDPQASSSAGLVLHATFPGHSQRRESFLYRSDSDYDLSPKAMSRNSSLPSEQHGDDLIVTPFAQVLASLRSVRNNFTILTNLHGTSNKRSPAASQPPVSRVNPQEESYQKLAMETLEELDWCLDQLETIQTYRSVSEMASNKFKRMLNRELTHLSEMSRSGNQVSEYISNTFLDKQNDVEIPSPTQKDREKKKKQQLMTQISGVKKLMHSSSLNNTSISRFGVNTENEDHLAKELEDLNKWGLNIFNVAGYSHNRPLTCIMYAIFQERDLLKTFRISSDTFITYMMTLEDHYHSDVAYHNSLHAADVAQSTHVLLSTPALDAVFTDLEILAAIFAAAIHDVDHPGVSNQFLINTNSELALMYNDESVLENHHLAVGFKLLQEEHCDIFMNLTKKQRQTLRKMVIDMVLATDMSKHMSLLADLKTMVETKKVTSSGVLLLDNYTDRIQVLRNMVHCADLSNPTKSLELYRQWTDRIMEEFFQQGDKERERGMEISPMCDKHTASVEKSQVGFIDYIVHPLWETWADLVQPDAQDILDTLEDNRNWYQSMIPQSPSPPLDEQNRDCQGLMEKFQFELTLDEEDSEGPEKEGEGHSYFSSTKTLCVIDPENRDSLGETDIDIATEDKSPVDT
Description: Inhibition of PDE4B (unknown origin) upto 10000 nM

[20] = Toxicity in dog assessed as clinical pathological changes by measuring increase in red cell mass at 75 mg/kg/day, po QD for 4 days; type: organism-based, Canis lupus familiaris; details: in vivo, 96 h, time 4 day
[21] = system: Mus musculus; assay: Anti-inflammatory activity against C57BL6/N mouse assessed as EC50 required for reduction in LPS-induced PGD2 level in plasma administered orally with compound and 1 hr later treated with LPS and measured after 30 mins by LC-MS/MS analysis; type: functional, organism-based; details: C57BL/6N
[22] = molecular target: cGMP-inhibited 3',5'-cyclic phosphodiesterase 3A (Homo sapiens) (UniProt Q14432); details: dose <= 10000.0 nM
cGMP-inhibited 3',5'-cyclic phosphodiesterase 3A (Homo sapiens), sequence (Q14432 whole entry): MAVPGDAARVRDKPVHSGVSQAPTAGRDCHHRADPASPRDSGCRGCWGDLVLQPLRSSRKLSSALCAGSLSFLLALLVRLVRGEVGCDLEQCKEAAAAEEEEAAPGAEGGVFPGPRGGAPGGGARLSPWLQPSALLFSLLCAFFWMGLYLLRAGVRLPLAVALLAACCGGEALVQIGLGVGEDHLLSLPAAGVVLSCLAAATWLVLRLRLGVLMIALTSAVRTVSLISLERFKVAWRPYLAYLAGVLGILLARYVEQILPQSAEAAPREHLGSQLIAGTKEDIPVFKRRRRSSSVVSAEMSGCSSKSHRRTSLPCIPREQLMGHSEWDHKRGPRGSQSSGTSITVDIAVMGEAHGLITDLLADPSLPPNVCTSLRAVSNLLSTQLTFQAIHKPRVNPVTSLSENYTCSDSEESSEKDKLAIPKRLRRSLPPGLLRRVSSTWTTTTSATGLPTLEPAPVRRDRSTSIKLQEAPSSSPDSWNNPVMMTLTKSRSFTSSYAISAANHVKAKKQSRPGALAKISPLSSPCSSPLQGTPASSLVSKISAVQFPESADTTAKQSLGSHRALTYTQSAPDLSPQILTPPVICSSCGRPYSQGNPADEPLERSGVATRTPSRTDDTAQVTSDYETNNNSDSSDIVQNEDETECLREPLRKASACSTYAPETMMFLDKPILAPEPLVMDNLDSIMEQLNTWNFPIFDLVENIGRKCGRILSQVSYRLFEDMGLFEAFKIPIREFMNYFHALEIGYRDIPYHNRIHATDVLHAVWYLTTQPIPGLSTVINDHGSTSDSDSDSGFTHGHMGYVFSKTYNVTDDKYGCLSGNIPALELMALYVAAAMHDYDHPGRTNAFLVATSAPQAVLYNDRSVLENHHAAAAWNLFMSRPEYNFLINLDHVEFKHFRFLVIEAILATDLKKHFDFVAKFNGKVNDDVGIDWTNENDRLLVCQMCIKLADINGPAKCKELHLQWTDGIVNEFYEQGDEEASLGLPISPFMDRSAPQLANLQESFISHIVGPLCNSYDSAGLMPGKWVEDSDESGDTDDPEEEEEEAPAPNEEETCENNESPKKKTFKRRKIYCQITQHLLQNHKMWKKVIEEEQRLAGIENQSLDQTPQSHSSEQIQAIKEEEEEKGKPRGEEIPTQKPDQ
Description: Inhibition of PDE3A (unknown origin) upto 10000 nM

[23] = Solubility of the compound in FaSSIF at pH 6.5 measured after 4 hrs by HPLC-UV analysis; type: ADME
[24] = AUC in dog at 10 mg/kg/day, po QD for 4 days; type: ADME, organism-based, Canis lupus familiaris; set-up: dose 10 mg/kg/day, time 4 day, route po; details: in vivo
[25] = molecular target: Alpha-2C adrenergic receptor (Homo sapiens) (UniProt P18825); details: dose <= 10000.0 nM
Alpha-2C adrenergic receptor (Homo sapiens), sequence (P18825 whole entry): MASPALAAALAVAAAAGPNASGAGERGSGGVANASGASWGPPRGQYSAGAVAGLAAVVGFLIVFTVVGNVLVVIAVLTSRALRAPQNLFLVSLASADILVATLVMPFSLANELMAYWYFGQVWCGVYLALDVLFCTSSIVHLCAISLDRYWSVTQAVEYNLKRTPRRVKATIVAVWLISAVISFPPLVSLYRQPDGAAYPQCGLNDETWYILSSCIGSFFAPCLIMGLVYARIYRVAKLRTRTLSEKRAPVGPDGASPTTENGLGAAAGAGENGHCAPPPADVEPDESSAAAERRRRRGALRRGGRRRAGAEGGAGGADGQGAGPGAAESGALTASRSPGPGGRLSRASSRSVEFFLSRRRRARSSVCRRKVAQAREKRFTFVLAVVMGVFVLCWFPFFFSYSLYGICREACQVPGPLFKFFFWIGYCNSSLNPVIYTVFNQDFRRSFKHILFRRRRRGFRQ
Description: Inhibition of alpha2C adrenergic receptor (unknown origin) upto 10000 nM

[26] = molecular target: Prostaglandin-H2 D-isomerase (Homo sapiens, UniProt P41222); assay: Inhibition of L-PGDS (unknown origin)
Prostaglandin-H2 D-isomerase, sequence (P41222 whole entry): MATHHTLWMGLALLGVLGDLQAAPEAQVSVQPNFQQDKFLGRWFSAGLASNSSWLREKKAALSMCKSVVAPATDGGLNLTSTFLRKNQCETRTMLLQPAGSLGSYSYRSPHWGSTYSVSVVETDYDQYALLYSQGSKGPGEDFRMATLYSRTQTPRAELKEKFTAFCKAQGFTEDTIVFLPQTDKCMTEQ

[27] = Toxicity in dog assessed as tolerance upto 30 mg/kg/day, po QD for 4 days; type: organism-based, Canis lupus familiaris; details: in vivo, 96 h, time 4 day
[28] = molecular target: T1, Hematopoietic prostaglandin D synthase; assay: Inhibition of human H-PGDS expressed in Escherichia coli BL21 DE3 cells assessed as reduction in PGD2 production using PGH2 as substrate by RapidFire High Throughput Mass spectrometry
[29] = Toxicity in C57BL/6N mouse assessed as seizures administered orally for 10 mins prior to unilateral eccentric contraction and QD for 16 days thereafter; details: in vivo, po, 384 h, time 16 day
[30] = Toxicity in dog assessed as decreased cortical lymphoid cellularity in thymus at 75 mg/kg/day, po QD for 4 days by microscopic analysis; type: organism-based, Canis lupus familiaris; details: in vivo, 96 h, time 4 day
[31] = molecular target: Cytochrome P450 3A4 (Homo sapiens, UniProt P08684); assay: Inhibition of CYP3A4 (unknown origin); type: ADME
[32] = Toxicity in dog assessed as hemorrhage of zona fasciculata in adrenal gland at 75 mg/kg/day, po QD for 4 days by microscopic analysis; type: organism-based, Canis lupus familiaris; details: in vivo, 96 h, time 4 day
[33] = Cmax in dog at 30 mg/kg/day, po QD for 4 days; type: ADME, organism-based, Canis lupus familiaris; set-up: time 4 day, dose 30 mg/kg/day, route po; details: in vivo
[34] = molecular target: T2, Hematopoietic prostaglandin D synthase (Rattus norvegicus, UniProt O35543); assay: Inhibition of H-PGDS in rat RBL cells assessed as reduction in A23187-induced PGD2 production pretreated for 30 mins followed by A23187 addition for 30 mins by RapidFire Mass spectrometry; type: cell-based
T2 sequence (O35543 whole entry): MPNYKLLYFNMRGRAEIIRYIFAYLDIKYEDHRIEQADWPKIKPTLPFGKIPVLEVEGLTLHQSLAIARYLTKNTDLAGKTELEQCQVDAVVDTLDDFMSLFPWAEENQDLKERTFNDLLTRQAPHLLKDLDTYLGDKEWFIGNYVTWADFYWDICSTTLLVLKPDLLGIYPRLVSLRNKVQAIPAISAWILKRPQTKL

[35] = molecular target: Sodium-dependent noradrenaline transporter (Homo sapiens) (UniProt P23975); details: dose <= 10000.0 nM
Description: Inhibition of NET (unknown origin) upto 10000 nM

[36] = molecular target: Sodium-dependent serotonin transporter (Homo sapiens) (UniProt P31645); details: dose <= 10000.0 nM
Sodium-dependent serotonin transporter (Homo sapiens), sequence (P31645 whole entry, looked up): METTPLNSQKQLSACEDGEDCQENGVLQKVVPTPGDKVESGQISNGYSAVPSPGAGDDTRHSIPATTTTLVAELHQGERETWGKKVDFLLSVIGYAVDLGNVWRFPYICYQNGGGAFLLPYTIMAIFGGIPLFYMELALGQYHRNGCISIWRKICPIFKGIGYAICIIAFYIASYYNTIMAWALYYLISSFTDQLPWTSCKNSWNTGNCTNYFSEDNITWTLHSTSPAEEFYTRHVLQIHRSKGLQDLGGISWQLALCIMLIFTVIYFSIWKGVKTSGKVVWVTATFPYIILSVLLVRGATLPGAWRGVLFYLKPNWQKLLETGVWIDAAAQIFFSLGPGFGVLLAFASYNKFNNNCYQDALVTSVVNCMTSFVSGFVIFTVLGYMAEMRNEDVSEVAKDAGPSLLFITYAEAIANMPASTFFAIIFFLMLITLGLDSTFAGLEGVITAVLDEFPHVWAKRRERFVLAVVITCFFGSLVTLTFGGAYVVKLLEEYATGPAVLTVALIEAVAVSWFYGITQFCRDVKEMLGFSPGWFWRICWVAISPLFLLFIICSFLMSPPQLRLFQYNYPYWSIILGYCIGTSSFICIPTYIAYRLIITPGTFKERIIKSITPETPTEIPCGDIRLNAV
Description: Inhibition of SERT (unknown origin) upto 10000 nM

[37] = Ratio of drug level in muscle to plasma in C57BL/6N mouse administered orally for 10 mins prior to unilateral eccentric contraction and QD for 16 days thereafter; type: toxicity, cell-free, Muscle tissue/plasma; details: route po, time 16 day
[38] = Toxicity in LPS-treated C57BL6/N mouse assessed as seizures administered orally with compound and 1 hr later treated with LPS and measured after 30 mins; details: in vivo, po, 1.5 h
[39] = molecular target: 5-hydroxytryptamine receptor 3A (Homo sapiens) (UniProt P46098); details: dose <= 10000.0 nM
Description: Inhibition of 5-HT3 receptor (unknown origin) upto 10000 nM

In the case of `CC(C)(O)[C@H]1CC[C@H](NC(=O)c2cnc3nc(C4CC4)ccc3c2)CC1`, the fraction unbound [1] is reported as 0.2, the Activity [2] is reported as “Toxic” and the Activity [3] is reported as “Toxic”. For the same compound, the IC50 [4] was over 80000 nM, the Activity [5] was “Toxic” and the Activity [6] was “Toxic”. The AUC at 168 h [7] was 820 µg·h/mL, the half-life [8] was 6.2 h and the AUC(0-t) at 384 h [9] was 5.3 µg·h/mL. For the same compound, the Cmax [10] was 24000 ng/mL, the Activity [11] was “Toxic” and the Kd [12] was 0.24 nM. For the same compound, the fCmax [13] was 49 ng/mL, the inhibition [14] was “inactive” and the inhibition [15] was “inactive”. For the same compound, the Activity [16] was “Non-Toxic”, the “Ratio EC50” value [17] was 10 and the half-life [18] was 5.1 h. The inhibition [19] was “inactive”, the Activity [20] was “Toxic” and the EC50 [21] was 2.6 nM. The inhibition [22] was “inactive”, the solubility at 4 h [23] was 140 µg/mL (≈ 396 µM) and the AUC at 96 h [24] was 120 µg·h/mL. The inhibition [25] was “inactive”, the IC50 [26] was over 10000 nM and the Activity [27] was “Non-Toxic”. The IC50 [28] was 9.4 nM, the Activity [29] was “Non-Toxic” and the Activity [30] was “Toxic”. For the same compound, the IC50 [31] was over 100000 nM, the Activity [32] was “Toxic” and the Cmax [33] was 34000 ng/mL. The EC50 [34] was 42 nM, the inhibition [35] was “inactive” and the inhibition [36] was “inactive”. The Kp at 384 h [37] was 0.56, the Activity [38] was “Non-Toxic” and the inhibition [39] was “inactive”.
